We go through six compounds from patent US4719302A (priority 1987, dated 1988).

Each structure is given as a SMILES string. In brackets after ≈: the same amount, converted by molar mass. Where two headings read alike, the source gives them in different places.

What all share (assay type): cell-based
Assay [1] has as its system Cryptococcus neoformans ATCC 14115. Briefly: antifungal activity, disc agar assay (Minimum Inhibitory Concentration), Cryptococcus neoformans. Here is the method:
(§1) The compounds of the invention are tested to determine their antifungal activity. The assay procedure is as follows:
(§2) The compounds to be tested are solubilized or suspended in appropriate reagent and further diluted in sterile distilled water to provide a range of concentrations from 200 to 10 μg/ml. 20 Lambda portions are placed on sterile dried 1/4 inch paper discs and allowed to dry for 20-30 minutes. Agar plates with a 10 ml base layer are seeded with the fungi in a 4 ml seed layer and allowed to solidify. The impregnated discs are then placed on the seeded agar surface and incubated for the time required for the particular culture.
(§3) The representative fungi are:
(§4) All are human pathogens; the first four cause serious systemic mycotic infections as well as local. The trychophyton culture is mainly a dermatophyte.

In assay [2] the test system is Candida albicans ATCC 10231. Briefly: antifungal activity, disc agar assay (Minimum Inhibitory Concentration), Candida albicans. The procedure:
as §1, §2, §3
Candida albicans ATCC 10231
as §4

In assay [3] the test system is Blastomyces dermatitidis Yeast Phase ATCC 28839. As to the kind of experiment: antifungal activity, disc agar assay (Minimum Inhibitory Concentration), Blastomyces dermatitidis yeast phase. Conditions: read-out: Minimum Inhibitory Concentration. The procedure:
as §1, §2, §3
Blastomyces dermatitidis
as §4

In assay [4] the test system is Trichophyton mentagrophytes ATCC 9533. As to the kind of experiment: antifungal activity, disc agar assay (Minimum Inhibitory Concentration), Trichophyton mentagrophytes. The procedure: as §1, §2, §3
Trichophyton mentagrophytes
as §4

In assay [5] the test system is Histoplasma capsulatum Yeast Phase ATCC 11407. As to the kind of experiment: microbe, parasite or virus in culture. Conditions: read-out: Minimum Inhibitory Concentration.
Where [6] appears, read: ATCC14115, Cryptococcus Neoformans ATCC 14115, read-out: Minimum Inhibitory Concentration.
Where [7] appears, read: ATCC10231, Candida Albicans ATCC 10231, read-out: Minimum Inhibitory Concentration.
[8] abbreviates: Blastomyces Dermatitidis Yeast Phase ATCC 28839.
[9] abbreviates: ATCC9533, Trichophyton Mentagrophytes ATCC 9533, read-out: Minimum Inhibitory Concentration.

Turning to `CCOC(=O)c1c[nH]c2c(F)cc3c(=O)c(C(=O)O)cn(CC)c3c2c1=O` [Example 1, 1-Ethyl-6-fluoro-1,4,7,10-tetrahydro-4,10-dioxo-1,7-phenanthroline-3,9-dicarboxylic acid 9-ethyl ester], the MIC in assay [1] (setting [6]) was 64 mg/L (≈ 171 µM); in assay [2] (setting [7]) it was 32 mg/L (≈ 85.5 µM); in assay [3] (setting [8]), 32 mg/L (≈ 85.5 µM); in assay [4] (setting [9]), 64 mg/L (≈ 171 µM); in assay [5] it was 32 mg/L (≈ 85.5 µM).
With `CCOC(=O)c1cn(CC)c2c(cc(F)c3c2c(=O)c(C(=O)OCC)cn3CC)c1=O` [Example 2, 1,7-Diethyl-6-fluoro-1,4,7,10-tetrahydro-4,10-dioxo-1,7-phenanthroline-3,9-dicarboxylic acid diethyl ester], the MIC in assay [1] (setting [6]) is more than 64 mg/L; in assay [2] (setting [7]), more than 64 mg/L; in assay [3] (setting [8]), 64 mg/L (≈ 149 µM); in assay [4] (setting [9]) it was more than 64 mg/L; in assay [5], 64 mg/L (≈ 149 µM).
As for `CCn1cc(C(=O)O)c(=O)c2c1c(F)cc1c(=O)c(C(=O)O)cn(CC)c12` [Example 3, 1,7-Diethyl-6-fluoro-1,4,7,10-tetrahydro-4,10-dioxo-1,7-phenanthroline-3,9-dicarboxylic acid], the MIC in assay [1] (setting [6]) is more than 64 mg/L; in assay [2] (setting [7]), more than 64 mg/L; in assay [3] (setting [8]), 64 mg/L (≈ 171 µM); in assay [4] (setting [9]), more than 64 mg/L; in assay [5] it was 64 mg/L (≈ 171 µM).
Take `CCOC(=O)c1c[nH]c2c(cc(F)c3c2c(=O)ccn3CC)c1=O` [Example 4, 7-Ethyl-6-fluoro-1,4,7,10-tetrahydro-4,10-dioxo-1,7-phenanthroline-3-carboxylic acid ethyl ester]: the MIC in assay [1] (Cryptococcus neoformans, ATCC14115, read-out: Minimum Inhibitory Concentration) is more than 256 mg/L; in assay [2] (Candida albicans, ATCC10231, read-out: Minimum Inhibitory Concentration), more than 256 mg/L; in assay [3], more than 256 mg/L; in assay [4] (Trichophyton mentagrophytes, ATCC9533, read-out: Minimum Inhibitory Concentration) it was more than 256 mg/L; in assay [5], more than 256 mg/L.
For `CCOC(=O)c1c[nH]c2c(cc(F)c3c2c(=O)c(C(=O)O)cn3CC)c1=O` [Example 5, 7-Ethyl-6-fluoro-1,4,7,10-tetrahydro-4,10-dioxo-1,7-phenanthroline-3,9-dicarboxylic acid 3-ethyl ester], the MIC in assay [1] (setting [6]), in assay [2] (setting [7]), in assay [3] (setting [8]), in assay [4] (setting [9]) and in assay [5] was more than 256 mg/L each time.
Consider `CCOC(=O)c1c[nH]c2c(cc(F)c3c2c(=O)c(C(=O)OCC)cn3CC)c1=O` [Example 6, 7-Ethyl-6-fluoro-1,4,7,10-tetrahydro-4,10-dioxo-1,7-phenanthroline-3,9-dicarboxylic acid diethyl ester], for which the MIC in assay [1] (setting [6]) is more than 64 mg/L; in assay [2] (setting [7]) it was more than 64 mg/L; in assay [3] (setting [8]), 64 mg/L (≈ 159 µM); in assay [4] (setting [9]) it was more than 64 mg/L; in assay [5], 64 mg/L (≈ 159 µM).
